Test results: patent US6384056B1, “Heterocyclic thioesters or ketones for vision and memory disorders” (GPI NIL Holdings, Inc., priority 1998, dated 2002)
Marks after values point to notes of the source that are not given here.

Experiments:
[1] = test system: retinal ganglion cells and optic nerve axons; assay: optic nerve transection: retinal ganglion cell survival, optic nerve axon preservation and myelination 90 days after transection; type: in vivo, rat; settings: for RGC Counts: mean density + SEM of Fluoro-gold labeled RGC in 400 μm × 400 μm gridfields; for ON Axon density: RT97 labeled axons in 200 μm × 200 μm region, mean + SEM; for Proximal optic nerve myelin basic protein Density: % areal coverage of optic nerve cross section, ± SEM; for increased ON axon density: adjusted for optic nerve diameter; for ON axon Count: calculated by multiplying axonal density by ON area; for Distal optic nerve myelin basic protein Density (myelin level): cross sectional area multiplied by myelin density
From the text: All eyes and optic nerves stumps were removed.

[2] = test system: retinal ganglion cells and optic nerve; assay: retinal ischemia: degeneration of retinal ganglion cells, optic nerve axons and myelin; type: in vivo, rat
From the text: Retinal ganglion cells were retrogradely labeled in adult rats by bilateral injection of fluorogold in their lateral geniculate nuclei. Labeled ganglion cells in the normal rat retina appear as white profiles against the dark background (FIG. 1A). Complete retinal ischemia was produced by infusing normal saline solution into the retinal vitreous cavity of each eye until the intraocular pressure exceeded arterial blood pressure. 28 days after the ischemic episode extensive degeneration of retinal ganglion cell was evidenced by massive reduction in the density of fluorogold labeled cells (FIG. 1B).

retina = assay: streptozotocin induced diabetes: retinal neovascularization and neuronal loss; type: in vivo; settings: 28 day treatment beginning 8 weeks after onset of streptozotocin induced diabetes
[3] = test system: retinal ganglion cell axons; assay: protection of retinal ganglion cell axons from degeneration 14 days after optic nerve transection (RT97); type: in vivo; settings: ± SEM
From the text: Efficacy of represetative compounds from different immunophilin ligand series in protecting retinal ganglion cell axons from degeneration following optic nerve transection set forth in Table 9.
Efficacy of representative compounds from different immunophilin ligand series in protecting retinal ganglion cell axons from degeneration following optic nerve transection

Clearance = type: in vitro ADME; settings: Table 9 comments
[4] = test system: streptozotocin-induced diabetic rat; assay: sensory neuropathy in streptozotocin-induced diabetes: hot plate and tail flick; type: in vivo; settings: lesioned animals treated for 6 weeks at 10 mg/kg s.c., treatment started six weeks after streptozotocin
Procedure: The procedure involved using Male Wistar rats which were given a single injection of streptozotocin (65 mg/kg i.v.). Blood glucose levels were determined weekly for the first three weeks and on the last week of the experiment. Animals were evaluated weekly for signs of sensory neuropathy using the conventional hot plate and tail flick apparatus test procedures.

aged mice = assay: Morris watermaze spatial learning and memory in aged rodents; type: in vivo, mouse; settings: aged impaired C57BL/6N-Nia mice, 10 mg/kg daily, retention testing after 3 weeks of dosing
From the text: The Morris watermaze is widely used for assessing spatial memory formation and retention in experimental animals. The test depends on the animal's ability to utilize spatial visual information in order to locate a submerged escape platform in a water tank. It is important that the tank itself be as devoid of specific visual features as possible-thus, it is always circular in shape, the sides are kept smooth and in uniform dull colors, and the water is rendered opaque with nontoxic watercolor pigment or powdered milk. This is to ensure that the animal navigates only by the use of more distant visual cues, or by the use of intra-maze cues specifically provided by the experimenter. The tank is filled to a level which forces the animal to swim actively. Normal mice and rats react […] to the swimming part of the test and will climb onto, and remain on, an escape platform from which they are removed to a heated resting cage. If the platform is visible (i.e. above the surface), animals placed in the tank will quickly learn to home in on the platform and climb out onto it. […] Swim Distances (cm) were analyzed in a 7×5 ANOVA including Groups and Blocks (1-5) as factors in the analysis, treating Blocks as a repeated measure.

[5] = ONT/14 days GPI 1046, 90 days after transection
[6] = ONT/28 days GPI 1046, 90 days after transection
[7] = 28 days after 1 hour retinal ischemic episode, toluidine blue staining

CCC(C)(C)C(=O)C(=O)N1CCC[C@H]1C(=O)OCCCc1cccnc1 [GPI 1046, 3-(3-pyridyl)-1-propyl (2s)-1-(3,3-dimethyl-1,2-dioxopentyl)-2-pyrrolidinecarboxylate]
preservation of axons of protected neurons in the proximal stump ([1]; Example 16: 10 mg/kg/day s.c. for 28 days, 90 days after transection, RT97): preserved the axons of virtually all protected neurons | ganglion cell population spared (perikaryal neuroprotection) ([1]; Example 16: 10 mg/kg/day s.c. for 28 days, sacrificed 90 days after transection): 25% | protection of optic nerve axons ([1]; GPI 1046 for the first 14 days after optic nerve transection, proximal stump, 90 days): 5.3% | RGC Counts ([1]; ONT/14 days GPI 1046, 10 mg/kg/day sc, 90 days after transection): small but not significant increase | % RGCs Rescued [1, 5]: 5.3% | % surviving RGCs with ON axons [1, 5]: 33.6% | Distal optic nerve stump shrinkage (cross sectional area vs sham) [1, 5]: did not protect against shrinkage of the distal stump | ON head area (% sham) [1, 5]: 76% sham | Spared RGC population [1, 5]: 20,275 | ON Axon density [1, 5]: 569 ± 23 | Proximal optic nerve myelin basic protein Density ([1]; ONT/14 days GPI 1046): 1.6 ± 3.0 SEM % recovery | increased ON axon density ([1]; ONT/14 days GPI 1046): 1.5× | ON axon Count ([1]; ONT/14 days GPI 1046): 6820 | Distal optic nerve myelin basic protein Density (myelin level) ([1]; ONT/14 days GPI 1046): slightly increase the density of myelin | RGC Counts ([1]; ONT/28 days GPI 1046, 10 mg/kg/day sc, 90 days after transection): 67.9 + 5.8* | % surviving RGCs with ON axons [1, 6]: 81.4% | Distal optic nerve stump shrinkage (cross sectional area vs sham) [1, 6]: prevented cross sectional shrinkage of the distal stump | ON head area (% sham) [1, 6]: 95%* % sham | Spared RGC population [1, 6]: 28,096* | ON Axon density [1, 6]: significant increase in the density of large, and particularly medium and small caliber optic nerve axons | Proximal optic nerve myelin basic protein Density ([1]; ONT/28 days GPI 1046): 70 ± 6.3 SEM % recovery | increased ON axon density ([1]; ONT/28 days GPI 1046): 5.0× | ON axon Count ([1]; ONT/28 days GPI 1046): 22,861* | Distal optic nerve myelin basic protein Density (myelin level) ([1]; ONT/28 days GPI 1046): 99% myelin % myelin preservation | protection of retinal ganglion cells (density of fluorogold labeled cells) ([2]; 10 mg/kg s.c. 1 hour prior to ischemic episode and 10 mg/kg/day for next four days, 28 days after ischemia): noticeable protection of a large proportion of the vulnerable ganglion cell population | density of degenerating myelin figures [2, 7]: dramatically decreased the density of degenerating myelin figures | protection of optic nerve axons from ischemic degeneration [2, 7]: protected the majority of optic nerve axons from degeneration | neovascularization in the PR, ONL, OPL and INL (retina): reduced neovascularization | neuronal loss in the ONL (retina): did not appear to protect against neuronal loss in the ONL | loss of neurons in the INL and GCL (retina; vs streptozotocin/vehicle): appeared to decrease the loss of neurons in both the INL and GCL | RT 97 + RGC axon density 14 days after ON transaction (36 ON axons rescued) [3]: 60.5% ±3.9 SEM | Clearance (Clearance): 63.8 µL/min | latency in hot plate and tail flick tests [4]: improvement in latency | spatial memory performance (swim distance), retention testing (aged mice): significantly enhanced spatial memory performance
